Assay results published in paper PMC7534258, “Novel temporin L antimicrobial peptides: promoting self-assembling by lipidic tags to tackle superbugs” (Journal of Enzyme Inhibition and Medicinal Chemistry, 2020).
Values after ≈ are worked out from the molar mass of the structure shown. Where a SMILES comes first, the peptide text is derived from it. [ ]: non-standard residue; d: D form. The star is where a group is joined. Heptanoyl = CCCCCCC(=O)*; Pentanoyl = CCCCC(=O)*

Tests used:
ANTS/DPX leakage assay = conditions: ANTS/DPX-loaded LUVs, Gram-positive and Gram-negative mimicking
Method: Large unilamellar vesicles (LUVs) and small unilamellar vesicles (SUVs) consisting of DOPG/CL (58/42 ratio in moles) and DOPG/DOPE/CL (63/23/12 ratio in moles), mimic the Gram-positive membrane and Gram-negative membrane, respectively. LUVs were prepared using the extrusion method as previously described. In particular, first lipid films were prepared by dissolving an appropriate amount of lipids in chloroform and fluorescent probes were added when necessary, then dried under a nitrogen gas stream and freeze-dried overnight. In all experiments, we used a final lipid concentration of 0.1 mM. For fluorescence experiments, buffer was added to dry lipid films and vortexed for 1 h; then the lipid suspension was freeze-thawed 6 times and extruded 10 times through polycarbonate membranes with 0.1 µm diameter pores to obtain LUVs. For circular dichroism measurements, peptide samples in SUVs were prepared as reported in the following protocol. Lipids were dissolved in chloroform and added to an equal volume of peptide solution dissolved in TFE containing appropriate peptide concentration. The samples were vortexed and lyophilised overnight. The dry samples were rehydrated with phosphate buffer 5 mM, pH 7.4 for 1 h and sonicated for 30 min.
The ANTS/DPX leakage assay was used to measure the ability of peptide to permeabilise and induce leakage of encapsulated dyes. After lipid films were prepared as previously described, ANTS (12.5 mM) and DPX (45 mM) were dissolved in 2 ml water, were added to lipid films and then lyophilised overnight. The lipid films with encapsulated ANTS and DPX were hydrated with PBS 1X buffer, vortexed for 1 h and then treated to obtain LUVs. The non-encapsulated ANTS and DPX were removed by gel filtration using a Sephadex G-50 column (1.5 cm × 10 cm) at room temperature. To start up the leakage experiment, a 2 mM peptide stock solution was prepared and LUVs were titrated with the peptide. Samples were excited at 385 nm (slit width, 5 nm) and fluorescence emission was recorded at 512 nm (slit width, 5 nm). After the addition of peptide, we evaluated leakage of encapsulated ANTS through a change in fluorescence spectra of ANTS and DPX. In particular, leakage is associated to an increase in ANTS fluorescence at 512 nm. Complete release of ANTS was obtained by using 0.1% Triton X, which caused the total destruction of liposomes. The percentage of leakage was calculated as % leakage =(Fi−F0)/(Ft−F0), where F0 represents the fluorescence of intact LUVs before the addition of peptide, and Fi and Ft denote the intensities of the fluorescence achieved after peptide and Triton-X treatment, respectively.

[1] = test system: K. pneumoniae ATCC BAA-1705; test: Broth microdilution MIC, reference strain; format: cell-based, Klebsiella pneumoniae; conditions: for MIC: Klebsiella pneumoniae, ATCCBAA1705, antibiotics, 16–18 h at 37 °C, read-out: Antimicrobial activity (MIC) K. pneumoniae ATCC BAA-1705
Method: (§1) Staphylococcus aureus ATCC 25923, Pseudomonas aeruginosa ATCC 27853 and Klebsiella pneumoniae ATCC BAA-1705 (carbapenemase producer) were obtained from the American Type Culture Collection (Rockville, MD).
(§2) Identification was performed by sub-culturing on Tryptic Soy Agar (TSA, Becton Dickinson) and by biochemical characterisation using the Vitek II system (Biomerieux). The antimicrobial susceptibility testing of all isolates was determined using Vitek II system and results were interpreted according to European Committee on Antimicrobial Susceptibility Testing (EUCAST version 9.0, 2019). P. aeruginosa was cultured in Brain Heart Infusion broth (BHI, OXOID), S. aureus and K. pneumoniae were cultured in Tryptic Soya broth (TSB, OXOID), under aerobic conditions at 37 °C, for 24 h on an orbital shaker at 200 rpm.
(§3) Minimal inhibitory concentrations (MIC) of all the peptides were determined in Mueller–Hinton medium by the broth microdilution assay, following the procedure already described[22]^,[34]. The compounds were added to bacterial suspension in each well yielding a final cell concentration of 1 × 10^6 CFU/ml and a final compound concentration ranging from 0.78 to 100 µM. Negative control wells were set to contain bacteria in Mueller–Hinton broth plus the amount of vehicle (ethanol) used to dilute each compound. Positive controls included vancomycin (2 µg/ml), tobramycin (4 µg/ml), gentamycin (4 µg/ml), and imipenem (8 µg/ml).

S. aureus ATCC 25923 = test: microbe, parasite or virus in culture; conditions: for MIC: Staphylococcus aureus, ATCC25923, read-out: Antimicrobial activity (MIC) S. aureus ATCC 25923
Method: as §1, §2, §3

[2] = Critical aggregation concentration, Nile red fluorescence; format: physicochemical; conditions: aqueous solution, pH 7, Nile red, 1–200 µM peptide
Method: The solvatochromic fluorescent probe Nile red is widely used to determine the CAC of self-assembling peptides. […] Since Nile red is poorly soluble in water, there is a large preference to partition aggregates, which offer hydrophobic binding sites. Initially, 1 mM methanolic Nile red was prepared. Then, the methanolic Nile red was diluted with water in order to have a final concentration of 500 nM (solution A). The peptides 1B, 2B, 3B, C, were prepared as follows[39]: peptide stock solutions (0.4 mM) were prepared by dissolving the single peptides in water (1B, C) or tetrahydrofuran (3B, 2B) and sonicating for 15 min. Different aliquots were taken to prepare solutions of each peptide at different concentrations (1, 5, 10, 15, 20, 30, 50, 100 and 200 µM). Then, all solutions were diluted with water, sonicated for 15 min and freeze-dried. Finally, the peptide powders were dissolved with the right volume of solution A and allowed to stand in the dark place for 1 h before measurement. Emission spectra for each solution were measured by a Cary Eclipse Varian spectrometer. Spectra were taken between 570 and 700 nm at a slit width of 5 nm, using an excitation wavelength of 550 nm and a 10 nm slit width. The measurements were performed in triplicate. The data were analysed by plotting the maximum emission fluorescence corresponding wavelength (y) as a function of peptide concentration (x) and fitting with the sigmoidal Boltzmann equation: y=A1+A2/1+e^(x−x0/Δx)+A2 where the variables A1 and A2 correspond to the upper and lower limits of the sigmoid, x0 is the inflection point of the sigmoid and Δx is the parameter, which characterises the steepness of the function. The sigmoidal plot allows calculating the CAC value at x0.

P. aeruginosa ATCC 27853 = test: Broth microdilution MIC, reference strain; format: cell-based, Pseudomonas aeruginosa; conditions: for MIC: Pseudomonas aeruginosa, ATCC27853, antibiotics, 16–18 h at 37 °C, read-out: Antimicrobial activity (MIC) P. aeruginosa ATCC 27853
Method: as §1, §2, §3

sheep red blood cells = format: cell-based; conditions: red cells of sheep, 24 h
Method: Sheep red blood cells were purchased from OXOID, SR0051D.
The haemolytic assay was conducted following the procedure described. […] Controls were erythrocytes treated with vehicle (water).

HaCaT cells = conditions: 24 h, at 6.25 µM
Method: The human immortalised keratinocytes HaCaT cells (AddexBio, San Diego, CA, USA) were cultured in Dulbecco’s modified Eagle’s medium containing 4 mM glutamine (DMEMg), supplemented with 10% heat-inactivated foetal bovine serum (FBS) and 0.1 mg/ml of penicillin and streptomycin, at 37 °C and 5% CO2, in 25 cm^2 or 75 cm^2 flasks[33].
The colorimetric MTT assay was carried out to measure cellular metabolic activity in terms of cell viability[33]^,[36]. Viable cells are able to reduce, by active mitochondrial dehydrogenases, the yellow salt MTT to purple formazan crystals. Briefly, 4 × 10^4 HaCaT cells, suspended in DMEMg supplemented with 2% FBS, were plated in each well of a 96-well microtiter plate. After overnight incubation, at 37 °C in a 5% CO2 atmosphere, keratinocytes were treated for 24 h with fresh serum-free medium containing the peptides 3B and C at concentrations ranging from 3.12 µM to 25 µM. Afterward, the culture medium was replaced with Hank’s buffer supplemented with 0.5 mg/ml MTT and the plate was incubated at 37 °C and 5% CO2 for 4 h. At the end, acidified isopropanol was employed to dissolve the formazan crystals. Cell viability was calculated, with respect to cells not treated with peptide, by absorbance measurements at 570 nm using a microplate reader (Infinite M200; Tecan, Salzburg, Austria)[33]. […]

KpCR2 = test: microbe, parasite or virus in culture; conditions: Klebsiella pneumoniae, read-out: Antimicrobial activity (MIC) KpCR2
Method: (§4) Clinical strains of P. aeruginosa (Pa1, Pa2 and Pa3), K. pneumoniae (KpCR1, KpCR2 and KpCR3), and S. aureus (Sa1, Sa2 and Sa3) were isolated from bloodstream or pulmonary infections, and belong to a collection of bacterial strains established between 2010 and 2018 at the Department of Molecular Medicine and Medical Biotechnologies (University Federico II, Naples) for research use.
as §2, §3

Pa1 = test: microbe, parasite or virus in culture; conditions: Pseudomonas aeruginosa, PA1, read-out: Antimicrobial activity (MIC) Pa1
Method: as §4, §2, §3

Sa2 = test: microbe, parasite or virus in culture; conditions: Staphylococcus aureus, MRSA, read-out: Antimicrobial activity (MIC) Sa2
Method: as §4, §2, §3

KpCR3 = test: microbe, parasite or virus in culture; conditions: Klebsiella pneumoniae, read-out: Antimicrobial activity (MIC) KpCR3
Method: as §4, §2, §3

KpCR1 = test: microbe, parasite or virus in culture; conditions: Klebsiella pneumoniae, read-out: Antimicrobial activity (MIC) KpCR1
Method: as §4, §2, §3

Sa1 = test: microbe, parasite or virus in culture; conditions: Staphylococcus aureus, MRSA, read-out: Antimicrobial activity (MIC) Sa1
Method: as §4, §2, §3

Pa2 = test: microbe, parasite or virus in culture; conditions: Pseudomonas aeruginosa, read-out: Antimicrobial activity (MIC) Pa2
Method: as §4, §2, §3

Sa3 = test: microbe, parasite or virus in culture; conditions: Staphylococcus aureus, MRSA, read-out: Antimicrobial activity (MIC) Sa3
Method: as §4, §2, §3

Pa3 = test: microbe, parasite or virus in culture; conditions: Pseudomonas aeruginosa, read-out: Antimicrobial activity (MIC) Pa3
Method: as §4, §2, §3

MIC (KpCR2) [µg/mL] | MIC (Pa1) [µg/mL] | MIC (Sa2) [µg/mL] | MIC (KpCR3) [µg/mL] | MIC (KpCR1) [µg/mL] | MIC (Sa1) [µg/mL] | MIC (Pa2) [µg/mL] | MIC (Sa3) [µg/mL] | MIC (Pa3) [µg/mL] | MIC [1] [µg/mL] | MIC (S. aureus ATCC 25923) [µg/mL] | MIC (P. aeruginosa ATCC 27853) [µg/mL] | SMILES | membrane leakage ability (in words) (ANTS/DPX leakage assay) | Antimicrobial activity (MIC) K. pneumoniae ATCC BAA-1705 [1] [µM] | Antimicrobial activity (MIC) S. aureus ATCC 25923 (S. aureus ATCC 25923) [µM] | CAC (critical aggregation concentration) [2] [µM] | Antimicrobial activity (MIC) P. aeruginosa ATCC 27853 (P. aeruginosa ATCC 27853) [µM] | haemolytic potency (sheep red blood cells) | reduction in cell viability (HaCaT cells)
– | – | – | – | – | – | – | – | – | – | – | – | CCCCC(=O)N[C@@H](Cc1ccccc1)C(=O)N[C@H](C(=O)N1CCC[C@H]1C(=O)N[C@@H](Cc1c[nH]c2ccccc12)C(=O)N[C@@H](Cc1ccccc1)C(=O)N[C@@H](CO)C(=O)N[C@@H](CCCCN)C(=O)N[C@@H](Cc1ccccc1)C(=O)N[C@H](CC(C)C)C(=O)N[C@H](CCCCN)C(=O)N[C@@H](CCCNC(=N)N)C(=O)N[C@H](C(=O)N[C@@H](CC(C)C)C(N)=O)[C@@H](C)CC)C(C)C [Compound 2B, CH3(CH2)3CO-Phe-Val-Pro-Trp-Phe-Ser-Lys-Phe-DLeu-DLys-Arg-Ile-Leu-NH2] (Pentanoyl-FVPWFSKF[dL][dK]RIL-NH2) | highest leakage ability | 50 | 12.5 | 20.9 | 50 | – | –
– | – | – | – | – | – | – | – | – | – | – | – | CCCCCCC(=O)N[C@@H](Cc1ccccc1)C(=O)N[C@H](C(=O)N1CCC[C@H]1C(=O)N[C@@H](Cc1c[nH]c2ccccc12)C(=O)N[C@@H](Cc1ccccc1)C(=O)N[C@@H](CO)C(=O)N[C@@H](CCCCN)C(=O)N[C@@H](Cc1ccccc1)C(=O)N[C@H](CC(C)C)C(=O)N[C@H](CCCCN)C(=O)N[C@@H](CCCNC(=N)N)C(=O)N[C@H](C(=O)N[C@@H](CC(C)C)C(N)=O)[C@@H](C)CC)C(C)C [Compound 3B, CH3(CH2)5CO-Phe-Val-Pro-Trp-Phe-Ser-Lys-Phe-DLeu-DLys-Arg-Ile-Leu-NH2] (Heptanoyl-FVPWFSKF[dL][dK]RIL-NH2) | highest leakage ability | 50 | 3.12 | 9.33 | 25 | over 50% | about 50%
> 8 | > 4 | > 8 | > 8 | > 8 | 8 (≈ 26.7 µM) | > 4 | > 8 | > 4 | > 8 | 0.5 (≈ 1.67 µM) | 4 (≈ 13.4 µM) | C[C@@H](O)[C@H]1C(=O)N2C(C(=O)O)=C(SCCN=CN)C[C@H]12 [Imipenem] | – | – | – | – | – | – | –
2 (≈ 4.28 µM) | 4 (≈ 8.56 µM) | < 1 | > 4 | 2 (≈ 4.28 µM) | 1 (≈ 2.14 µM) | 4 (≈ 8.56 µM) | 1 (≈ 2.14 µM) | 4 (≈ 8.56 µM) | > 4 | 1 (≈ 2.14 µM) | 4 (≈ 8.56 µM) | NC[C@H]1O[C@H](O[C@H]2[C@H](O)[C@@H](O[C@H]3O[C@H](CO)[C@@H](O)[C@H](N)[C@H]3O)[C@H](N)C[C@@H]2N)[C@H](N)C[C@@H]1O [Tobramycin] | – | – | – | – | – | – | –
